Earlier results, collected in patent US20240230638A9, “SMALL MOLECULE SCREENING ASSAY FOR DIGITAL MICROFLUIDIC PLATFORM” (NICOYA LIFESCIENCES, INC., priority 2021, published 2024).

Settings: measure of hydrophobicity, literature values

| SMILES | octanol-water partitioning coefficients (logKow) |
| --- | --- |
| NS(=O)(=O)c1ccccc1 [Benzenesulfonamide] | 0.31 |
| CC(C)/N=c1\cc2n(-c3ccc(Cl)cc3)c3ccccc3nc-2cc1Nc1ccc(Cl)cc1 [Clofazimine] | 6.3 |
| O=C(O)c1ccccc1Nc1cccc(C(F)(F)F)c1 [Flufenamic acid] | 5.19 |
| CC(C)Cc1ccc(C(C)C(=O)O)cc1 (stereo not shown) [Ibuprofen] | 3.97 |
